Measured values taken from patent publication US5567711A, “Indole-3-carbonyl and indole-3-sulfonyl derivatives as platelet activating factor antagonists” (Abbott Laboratories, priority 1995, dated 1996).
Counter-ions that a name gives are not always drawn.

target: PAF receptor (Oryctolagus cuniculus, UniProt G1TEI7); assay: PAF receptor binding assay: inhibition of specific [^3 H]C18 -PAF binding to rabbit platelet membranes; conditions: not given
Sequence (G1TEI7 1-342): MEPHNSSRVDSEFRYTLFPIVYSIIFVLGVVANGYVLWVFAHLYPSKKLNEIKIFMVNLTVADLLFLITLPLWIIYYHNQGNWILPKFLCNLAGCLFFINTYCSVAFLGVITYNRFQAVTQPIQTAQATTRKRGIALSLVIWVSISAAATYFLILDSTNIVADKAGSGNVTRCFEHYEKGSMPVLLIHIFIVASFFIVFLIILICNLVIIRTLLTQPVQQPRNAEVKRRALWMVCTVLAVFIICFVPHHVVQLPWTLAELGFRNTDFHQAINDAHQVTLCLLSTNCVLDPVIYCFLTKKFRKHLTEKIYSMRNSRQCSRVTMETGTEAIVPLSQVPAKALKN

Compound	Ki
CCOCCn1cc(C(=O)CN2CCC(n3c(C)nc4cnccc43)CC2)c2c(C(=O)OC)cccc21 [Example 23]	5.2 nM
CCOCCn1cc(C(=O)N2CCC(Cn3c(C)nc4cnccc43)CC2)c2ccc(-c3ccc(F)cc3)cc21 [Example 8, 1-(2-ethoxyethyl)-6-(4-fluorophenyl)-3-{[4-(1H-2-methylimidazo[4,5-c]pyrid-1-yl)methylpiperidin-1-yl]carbonyl}indole hydrochloride]	1.2 nM
CCOCCn1cc(C(=O)CN2CCC(n3c(C)nc4cnccc43)CC2)c2c(Cl)cccc21 [Example 25]	10 nM
CCOCCn1cc(C(=O)CN2CCC(n3c(C)nc4cnccc43)CC2)c2c(C)cccc21 [Example 28, 1-(2-ethoxyethyl)-4-methyl-3-{[4-(1H-2-methylimidazo[4.5-c]pyrid-1-yl)piperidin-1-yl]acetyl}indole]	0.5 nM

same assay, conditions: @ 1.0 μM; rabbit platelet membranes; 0.6 nM [^3 H]C18 -PAF; 60 minutes at room temperature

Compound	inhibition at 1 µM
Cc1nc2cnccc2n1C1CCN(S(=O)(=O)c2c[nH]c3cc(-c4ccc(F)cc4)ccc23)CC1 [Example 13, 6-(4-fluorophenyl)-3-{[4-(1H-2-methylimidazo[4.5-c]pyrid-1-yl)piperidin-1-yl]sulfonyl}indole]	32%

same assay, conditions: rabbit platelet membranes; 0.6 nM [^3 H]C18 -PAF; 60 minutes at room temperature; pH 7.0; Ki by Cheng and Prusoff from IC50

Compound	Ki
CCOCCn1cc(C(=O)N2CCC(Cn3c(C)nc4cnccc43)CC2)c2c(Cl)cccc21 [Example 9, 1-(2-ethoxyethyl)-4-chloro-3-{[4-(1H-2-methylimidazo[4.5-c]pyrid-1-yl)methylpiperidin-1-yl]carbonyl}indole hydrochloride]	29 nM

same assay, conditions: rabbit platelet membranes; 0.6 nM [^3 H]C18 -PAF; 60 minutes at room temperature; pH 7.0; Ki by Cheng and Prusoff from IC50; read-out: Ki

Compound	Ki
Cc1nc2cnccc2n1CC1CCN(C(=O)c2cn(C(=O)N(C)C)c3cccc(Cl)c23)CC1 [Example 7, 4-chloro-3-{[4-(1H-2-methylimidazo[4.5-c]pyrid-1-yl)methylpiperidin-1-yl]carbonyl}indole-1-carboxylic acid dimethyl amide hydrochloride]	18 nM
Cc1nc2cnccc2n1CC1CCN(S(=O)(=O)c2cn(C(=O)N(C)C)c3cc(-c4ccc(F)cc4)ccc23)CC1 [Example 17, 6-(4-fluorophenyl)-3-{[4-(1H-2-methylimidazo[4.5-c]pyrid-1-yl)methylpiperidin-1-yl]sulfonyl}indole-1-carboxylic acid dimethyl amide]	1.2 nM
Cc1nc2cnccc2n1C1CCN(C(=O)c2c[nH]c3ccccc23)CC1 [Example 3, 3-{[4-(1H-2-methylimidazo[4,5-c]pyrid-1-yl)piperidin-1-yl]carbonyl}indole hydrochloride]	100 nM
Cc1nc2cnccc2n1C1CCN(C(=O)c2cn(C(=O)N(C)C)c3cc(-c4ccc(F)cc4)ccc23)CC1 [Example 1, 6-(4-fluorophenyl)-3-{[4-(1H-2-methylimidazo[4.5-c]pyrid-1-yl)piperidin-1-yl]carbonyl)indole-1-carboxylic acid dimethyl amide hydrochloride]	3.3 nM
Cc1nc2cnccc2n1CC1CCN(S(=O)(=O)c2c[nH]c3cc(-c4ccc(F)cc4)ccc23)CC1 [Example 16, 6-(4-fluorophenyl)-3-{[4-(1H-2-methylimidazo[4.5-c]pyrid-1-yl)methylpiperidin-1-yl]sulfonyl}indole]	250 nM
Cc1nc2cnccc2n1C1CCN(S(=O)(=O)c2cn(C(=O)OC(C)(C)C)c3cc(-c4ccc(F)cc4)ccc23)CC1 [Example 12, 6-(4-fluorophenyl)-3-{[4-(1H-2-methylimidazo[4.5-c]pyrid-1-yl)piperidin-1-yl]sulfonyl}indole-1-carboxylic acid t-butyl ester]	340 nM
Cc1nc2cnccc2n1C1CCN(CC(=O)c2c[nH]c3cc(-c4ccc(F)cc4)ccc23)CC1 [Example 19, 6-(4-fluorophenyl)-3-{[4-(1H-2-methylimidazo[4.5-c]pyrid-1-yl)piperidin-1-yl]acetyl}indole]	95 nM
COC(=O)c1cccc2c1c(C(=O)[C@H]1CC[C@H](Cn3c(C)nc4cnccc43)CC1)cn2C(=O)N(C)C [Example 30, 3-{[trans-4-[(1H-2-methylimidazo[4.5-c]pyrid-1-yl)methylcyclohex-1-yl]carbonyl}indole-1,4-dicarboxylic acid 1-dimethyl amide 4-methyl ester hydrochloride]	2.4 nM
Cc1nc2cnccc2n1C1CCN(CC(=O)c2cn(C(=O)N(C)C)c3cc(-c4ccc(F)cc4)ccc23)CC1 [Example 20]	2.5 nM
Cc1nc2cnccc2n1CC1CCN(S(=O)(=O)c2cn(C(=O)OC(C)(C)C)c3cc(-c4ccc(F)cc4)ccc23)CC1 [Example 15, 6-(4-fluorophenyl)-3-{[4-(1H-2-methylimidazo[4.5-c]pyrid-1-yl)methylpiperidin-1-yl]sulfonyl)indole-1-carboxylic acid t-butyl ester]	65 nM
Cc1nc2cnccc2n1C1CCN(CC(=O)c2cn(C(=O)N(C)C)c3cccc(Cl)c23)CC1 [Example 26, 4-chloro-3-{[4-(1H-2-methylimidazo[4.5-c]pyrid-1-yl)piperidin-1-yl]acetyl}indole-1-carboxylic acid dimethyl amide]	12 nM
Cc1nc2cnccc2n1CCN1CCN(C(=O)c2cn(C(=O)N(C)C)c3cc(-c4ccc(F)cc4)ccc23)CC1 [Example 11, 6-(4-fluorophenyl)-3-[{4-[(2-(1H-2-methylimidazo[4.5-c]pyrid-1-yl)ethyl]piperazin-1-yl}carbonyl]indole-1-carboxylic acid dimethyl amide hydrochloride]	30 nM
COC(=O)c1cccc2c1c(C(=O)N1CCN(CCn3c(C)nc4cnccc43)CC1)cn2C(=O)N(C)C [Example 10, 3-[{4-[(2-(1H-2-methylimidazo[4.5-c]pyrid-1-yl)ethyl]piperazin-1-yl}carbonyl]indole-1,4-dicarboxylic acid 1-dimethyl amide 4-methyl ester hydrochloride]	200 nM
COC(=O)c1cccc2c1c(C(=O)N1CCC(Cn3c(C)nc4cnccc43)CC1)cn2C(=O)N(C)C [Example 5, 1-N,N-dimethylcarbamoyl-4-methoxycarbonyl-3-{[4-(1H-2-methylimidazo[4.5-c]pyrid-1-yl)methylpiperidin-1-yl]carbonyl}indole-1,4-dicarboxylic acid 1-dimethyl amide-4-methyl ester hydrochloride]	74 nM
Cc1nc2cnccc2n1CC1CCN(C(=O)c2cn(C(=O)N(C)C)c3cc(-c4ccc(F)cc4)ccc23)CC1 [Example 6, 6-(4-fluorophenyl)-3-{[4-(1H-2-methylimidazo[4.5-c]pyrid-1-yl)methylpiperidin-1-yl]carbonyl}indole-1-carboxylic acid dimethyl amide hydrochloride]	2.5 nM
Cc1cccc2c1c(C(=O)CN1CCC(n3c(C)nc4cnccc43)CC1)cn2C(=O)N(C)C [Example 29, 4-methyl-3-{[4-(1H-2-methylimidazo[4.5:c]pyrid-1-yl)piperidin-1-yl]acetyl}indole-1-carboxylic acid dimethyl amide]	2 nM
COC(=O)c1cccc2c1c(C(=O)N1CCC(n3c(C)nc4cnccc43)CC1)cn2C(=O)N(C)C [Example 4, 3-{[4-(1H-2-methylimidazo[4.5-c]pyrid-1-yl)piperidin-1-yl]carbonyl}indole-1,4-dicarboxylic acid 1-dimethyl amide-4-methyl ester hydrochloride]	140 nM
COC(=O)c1cccc2[nH]cc(C(=O)CN3CCC(n4c(C)nc5cnccc54)CC3)c12 [Example 21, 3-{[4-(1H-2-methylimidazo[4.5-c]pyrid-1-yl)piperidin-1-yl]acetyl}indole-4-carboxylic acid methy ester]	14 nM
Cc1nc2cnccc2n1CCN1CCN(S(=O)(=O)c2cn(C(=O)N(C)C)c3cc(-c4ccc(F)cc4)ccc23)CC1 [Example 18]	110 nM
Cc1nc2cnccc2n1C1CCN(CC(=O)c2c[nH]c3cccc(Cl)c23)CC1 [Example 24, 4-chloro-3-{[4-(1H-2-methylimidazo[4.5-c]pyrid-1-yl)piperidin-1-yl]acetyl}indole]	30 nM
Cc1cccc2[nH]cc(C(=O)CN3CCC(n4c(C)nc5cnccc54)CC3)c12 [Example 27, 4-methyl-3-{[4-(1H-2-methylimidazo[4.5-c]pyrid-1-yl)piperidin-1-yl]acetyl}indole]	71 nM
COC(=O)c1cccc2c1c(C(=O)CN1CCC(n3c(C)nc4cnccc43)CC1)cn2C(=O)N(C)C [Example 22, 3-{[4-(1H-2-methylimidazo[4.5-c]pyrid-1-yl)piperidin-1-yl]acetyl}indole-1,4-dicarboxylic acid 1-dimethyl amide 4-methyl ester]	12 nM
Cc1nc2cnccc2n1C1CCN(C(=O)c2c[nH]c3cc(-c4ccc(F)cc4)ccc23)CC1 [Example 2, 6-(4-fluorophenyl)-3-{[4-(1H-2-methylimidazo[4.5-c]pyrid-1-yl)piperidin-1-yl]carbonyl}indole hydrochloride]	44 nM
Cc1nc2cnccc2n1C1CCN(S(=O)(=O)c2cn(C(=O)N(C)C)c3cc(-c4ccc(F)cc4)ccc23)CC1 [Example 14, 6-(4-fluorophenyl)-3-{[4-(1H-2-methylimidazo[4.5-c]pyrid-1-yl)piperidin-1-yl]sulfonyl}indole-1-carboxylic acid dimethyl amide hydrochloride]	120 nM
